Assay results as given in PubChem BioAssay (NCI).
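Protocol summary: plate cells (96-well), add compound at 5 concentrations, incubate 48 h, interpolate endpoints linearly. GI50 = concentration required for 50% inhibition of growth. At the TGI there is no net growth.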

Assays:
Experiment in all cases: NCI anticancer screen, dose series, 48 h
[1] = system: MDA-MB-435
[2] = system: PC-3 prostate
[3] = system: NCI-H522 lung
[4] = system: K-562 leukemia
[5] = system: HOP-92 NSCLC
[6] = system: HOP-62 NSCLC
[7] = system: SK-MEL-28 melanoma
[8] = system: CAKI-1 renal
[9] = system: U251 CNS
[10] = system: MDA-MB-231 breast
[11] = system: NCI/ADR-RES ovarian
[12] = system: IGROV1 ovarian
[13] = system: KM12 colon
[14] = system: A549 NSCLC
[15] = system: OVCAR-8 ovarian
[16] = system: LOX IMVI melanoma
[17] = system: SK-MEL-2 melanoma
[18] = system: SF-268 CNS
[19] = system: OVCAR-5 ovarian
[20] = system: UACC-62 melanoma
[21] = system: SNB-19 CNS
[22] = system: NCI-H460 lung
[23] = system: NCI-H226 lung
[24] = system: NCI-H23 lung
[25] = system: M14 melanoma
[26] = system: A498 renal
[27] = system: UO-31 renal
[28] = system: RXF 393 renal
[29] = system: OVCAR-4 ovarian
[30] = system: HS 578T breast
[31] = system: TK-10 renal
[32] = system: SW-620 colon
[33] = system: SF-295 CNS
[34] = system: HT29 colon
[35] = system: UACC-257 melanoma
[36] = system: ACHN renal
[37] = system: HCT-15 colon
[38] = system: SK-MEL-5 melanoma
[39] = system: MOLT-4 leukemia
[40] = system: EKVX NSCLC
[41] = system: DU-145 prostate
[42] = system: BT-549 breast
[43] = system: HCC-2998 colon
[44] = system: OVCAR-3 ovarian
[45] = system: MALME-3M melanoma
[46] = system: T-47D breast
[47] = system: SR leukemia
[48] = system: HL-60(TB) leukemia
[49] = system: RPMI-8226 leukemia
[50] = system: COLO 205 colon
[51] = system: HCT-116 colon
[52] = system: CCRF-CEM leukemia
[53] = system: SN12C renal
[54] = system: SF-539 CNS
[55] = system: 786-0 renal
[56] = system: SNB-75 CNS
[57] = system: MCF7 breast
[58] = system: SK-OV-3 ovarian

SMILES: O=[N+]([O-])c1ccc(Nc2nc3ccccc3s2)cc1
- TGI [1]: > 100 µM
- TGI [2]: 35.1 µM
- TGI [3]: 35.9 µM
- TGI [4]: 35 µM
- TGI [5]: 60.9 µM
- TGI [6]: > 100 µM
- TGI [7]: > 100 µM
- TGI [8]: > 100 µM
- TGI [9]: 39.3 µM
- TGI [10]: 40.2 µM
- TGI [11]: > 100 µM
- TGI [12]: 21.2 µM
- TGI [13]: > 100 µM
- TGI [14]: > 100 µM
- TGI [15]: > 100 µM
- TGI [16]: 38.9 µM
- TGI [17]: 81 µM
- TGI [18]: 91.7 µM
- TGI [19]: 84.6 µM
- TGI [20]: 58.7 µM
- TGI [21]: > 100 µM
- TGI [22]: > 100 µM
- TGI [23]: > 100 µM
- TGI [24]: 34.5 µM
- TGI [25]: > 100 µM
- TGI [26]: 92 µM
- TGI [27]: 66.5 µM
- TGI [28]: 28.9 µM
- TGI [29]: > 100 µM
- TGI [30]: > 100 µM
- TGI [31]: 88 µM
- TGI [32]: > 100 µM
- TGI [33]: > 100 µM
- TGI [34]: > 100 µM
- TGI [35]: 75.6 µM
- TGI [36]: > 100 µM
- TGI [37]: > 100 µM
- TGI [38]: 56.7 µM
- TGI [39]: 30.3 µM
- TGI [40]: 40.4 µM
- TGI [41]: > 100 µM
- TGI [42]: 81.4 µM
- TGI [43]: 84 µM
- TGI [44]: 57.7 µM
- TGI [45]: 46.1 µM
- TGI [46]: 14 µM
- TGI [47]: 34.5 µM

SMILES: CC1=NN(c2nc(N)nc(CSCc3nc(N)nc(N(C)C)n3)n2)C(C)(C)C1
- TGI [1]: > 100 µM
- TGI [2]: > 100 µM
- TGI [3]: > 100 µM
- TGI [4]: 32.1 µM
- TGI [5]: > 100 µM
- TGI [6]: > 100 µM
- TGI [7]: > 100 µM
- TGI [8]: > 100 µM
- TGI [9]: > 100 µM
- TGI [10]: > 100 µM
- TGI [11]: > 100 µM
- TGI [12]: > 100 µM
- TGI [13]: > 100 µM
- TGI [48]: > 100 µM
- TGI [14]: > 100 µM
- TGI [15]: > 100 µM
- TGI [16]: > 100 µM
- TGI [17]: > 100 µM
- TGI [49]: > 100 µM
- TGI [18]: > 100 µM
- TGI [19]: > 100 µM
- TGI [50]: > 100 µM
- TGI [20]: > 100 µM
- TGI [21]: > 100 µM
- TGI [22]: > 100 µM
- TGI [51]: > 100 µM
- TGI [23]: > 100 µM
- TGI [24]: > 100 µM
- TGI [25]: > 100 µM
- TGI [26]: > 100 µM
- TGI [27]: > 100 µM
- TGI [52]: > 100 µM
- TGI [28]: > 100 µM
- TGI [53]: > 100 µM
- TGI [29]: > 100 µM
- TGI [30]: > 100 µM
- TGI [31]: > 100 µM
- TGI [54]: > 100 µM
- TGI [32]: > 100 µM
- TGI [33]: > 100 µM
- TGI [34]: > 100 µM
- TGI [35]: > 100 µM
- TGI [55]: > 100 µM
- TGI [36]: > 100 µM
- TGI [37]: > 100 µM
- TGI [38]: > 100 µM
- TGI [56]: > 100 µM
- TGI [39]: > 100 µM
- TGI [40]: > 100 µM
- TGI [57]: > 100 µM
- TGI [41]: > 100 µM
- TGI [58]: > 100 µM
- TGI [42]: > 100 µM
- TGI [43]: > 100 µM
- TGI [44]: > 100 µM
- TGI [46]: > 100 µM
- TGI [47]: > 100 µM

SMILES: O=C(Nc1cc[c]([Sb](=[O])([OH])[OH])cc1)c1ccccc1
- GI50 [1]: > 100 µM
- TGI [1]: > 100 µM
- GI50 [2]: > 100 µM
- TGI [2]: > 100 µM
- GI50 [3]: > 100 µM
- TGI [3]: > 100 µM
- GI50 [4]: > 100 µM
- TGI [4]: > 100 µM
- GI50 [5]: > 100 µM
- TGI [5]: > 100 µM
- GI50 [6]: > 100 µM
- TGI [6]: > 100 µM
- GI50 [7]: > 100 µM
- TGI [7]: > 100 µM
- GI50 [8]: > 100 µM
- TGI [8]: > 100 µM
- GI50 [9]: > 100 µM
- TGI [9]: > 100 µM
- GI50 [10]: > 100 µM
- TGI [10]: > 100 µM
- GI50 [11]: > 100 µM
- TGI [11]: > 100 µM
- GI50 [12]: > 100 µM
- TGI [12]: > 100 µM
- GI50 [13]: > 100 µM
- TGI [13]: > 100 µM
- GI50 [14]: > 100 µM
- TGI [14]: > 100 µM
- GI50 [15]: > 100 µM
- TGI [15]: > 100 µM
- GI50 [16]: > 100 µM
- TGI [16]: > 100 µM
- GI50 [17]: > 100 µM
- TGI [17]: > 100 µM
- GI50 [18]: > 100 µM
- TGI [18]: > 100 µM
- GI50 [19]: > 100 µM
- TGI [19]: > 100 µM
- GI50 [20]: > 100 µM
- TGI [20]: > 100 µM
- GI50 [21]: > 100 µM
- TGI [21]: > 100 µM
- GI50 [22]: > 100 µM
- TGI [22]: > 100 µM
- GI50 [51]: > 100 µM
- TGI [51]: > 100 µM
- GI50 [23]: > 100 µM
- TGI [23]: > 100 µM
- GI50 [24]: > 100 µM
- TGI [24]: > 100 µM
- GI50 [25]: > 100 µM
- TGI [25]: > 100 µM
- GI50 [26]: > 100 µM
- TGI [26]: > 100 µM
- GI50 [27]: > 100 µM
- TGI [27]: > 100 µM
- GI50 [52]: > 100 µM
- TGI [52]: > 100 µM
- GI50 [28]: > 100 µM
- TGI [28]: > 100 µM
- GI50 [53]: > 100 µM
- TGI [53]: > 100 µM
- GI50 [29]: > 100 µM
- TGI [29]: > 100 µM
- GI50 [30]: > 100 µM
- TGI [30]: > 100 µM
- GI50 [31]: > 100 µM
- TGI [31]: > 100 µM
- GI50 [32]: > 100 µM
- TGI [32]: > 100 µM
- GI50 [33]: > 100 µM
- TGI [33]: > 100 µM
- GI50 [34]: > 100 µM
- TGI [34]: > 100 µM
- GI50 [55]: > 100 µM
- TGI [55]: > 100 µM
- GI50 [36]: > 100 µM
- TGI [36]: > 100 µM
- GI50 [37]: > 100 µM
- TGI [37]: > 100 µM
- GI50 [38]: > 100 µM
- TGI [38]: > 100 µM
- GI50 [56]: > 100 µM
- TGI [56]: > 100 µM
- GI50 [39]: > 100 µM
- TGI [39]: > 100 µM
- GI50 [40]: > 100 µM
- TGI [40]: > 100 µM
- GI50 [41]: > 100 µM
- TGI [41]: > 100 µM
- GI50 [42]: > 100 µM
- TGI [42]: > 100 µM
- GI50 [44]: > 100 µM
- TGI [44]: > 100 µM
- GI50 [45]: > 100 µM
- TGI [45]: > 100 µM
- GI50 [46]: > 100 µM
- TGI [46]: > 100 µM
- GI50 [47]: > 100 µM
- TGI [47]: > 100 µM
